Data from the Kinase Knowledgebase extract (Sharma et al. 2016).

Target: PIK3CA (human) (UniProt P42336)
Assay: Assessment of PIK3CA Kinase Activity

Sequence of PIK3CA (human) (P42336 whole entry, looked up): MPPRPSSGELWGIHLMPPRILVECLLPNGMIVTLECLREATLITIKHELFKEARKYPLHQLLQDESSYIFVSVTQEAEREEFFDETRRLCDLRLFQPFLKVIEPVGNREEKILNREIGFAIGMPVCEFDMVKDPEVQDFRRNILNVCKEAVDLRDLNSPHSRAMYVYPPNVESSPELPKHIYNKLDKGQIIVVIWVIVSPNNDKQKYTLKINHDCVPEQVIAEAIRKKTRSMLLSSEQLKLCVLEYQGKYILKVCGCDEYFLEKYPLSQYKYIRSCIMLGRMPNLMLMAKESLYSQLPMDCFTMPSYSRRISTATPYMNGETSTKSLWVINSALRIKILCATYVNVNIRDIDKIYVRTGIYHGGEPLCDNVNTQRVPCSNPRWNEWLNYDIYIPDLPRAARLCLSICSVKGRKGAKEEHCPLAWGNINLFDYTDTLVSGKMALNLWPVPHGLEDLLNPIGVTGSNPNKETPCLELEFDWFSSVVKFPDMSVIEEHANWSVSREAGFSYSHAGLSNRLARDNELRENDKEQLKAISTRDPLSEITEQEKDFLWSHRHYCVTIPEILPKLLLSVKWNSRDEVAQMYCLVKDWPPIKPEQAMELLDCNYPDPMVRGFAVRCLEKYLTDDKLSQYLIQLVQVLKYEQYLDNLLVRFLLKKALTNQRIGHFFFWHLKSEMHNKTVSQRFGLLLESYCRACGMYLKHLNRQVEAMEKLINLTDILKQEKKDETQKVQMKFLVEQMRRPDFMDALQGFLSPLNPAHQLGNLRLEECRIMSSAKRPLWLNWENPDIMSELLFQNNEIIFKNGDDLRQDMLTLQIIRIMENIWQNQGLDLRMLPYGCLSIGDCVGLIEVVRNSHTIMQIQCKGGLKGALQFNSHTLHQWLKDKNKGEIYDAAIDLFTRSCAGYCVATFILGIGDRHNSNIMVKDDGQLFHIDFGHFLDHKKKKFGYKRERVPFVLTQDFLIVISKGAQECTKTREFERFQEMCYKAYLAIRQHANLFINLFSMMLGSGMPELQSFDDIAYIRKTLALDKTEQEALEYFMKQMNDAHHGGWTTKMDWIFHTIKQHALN

Work on `C[C@H](O)Cn1cc(-c2ccc3c(c2)OCCc2sc(-c4ncnn4CC(F)(F)F)nc2-3)cn1` yielded an IC50 of under 1 µM.
With `CC(=O)N(C)[C@@H]1CCN(C(=O)c2nc3c(s2)CCOc2cc(-c4cn[nH]c4)ccc2-3)C1` the IC50 was under 1 µM.
`Nc1nc(-c2cc3c(s2)-c2ccc(C(=O)NC4COC4)cc2OCC3)n(-c2ccc(F)cc2F)n1` showed an IC50 of under 1 µM.
`CCOc1ncccc1-c1ccc2c(c1)-c1nc(-c3ncnn3C(C)C)sc1CCO2` gave an IC50 of under 1 µM.
`CN1CCC(CNc2ccc3c(n2)-c2sc(-c4ncnn4-c4ccc(F)cc4F)cc2CCO3)C1` (stereo unspecified) showed an IC50 of under 1 µM.
In the case of `CC(C)(N)Cn1cc(-c2ccc3c(c2)OCCc2sc(-c4ncnn4CC(F)(F)F)nc2-3)cn1`, the IC50 is reported as under 1 µM.
`CC(C)n1ncnc1-c1nc2c(s1)CCOc1cc(C3CN(C(=O)[C@@H](C)O)C3)ccc1-2` was tested, and the IC50 was under 1 µM.
`Cc1nc(-c2nc3c(s2)CCOc2cc([C@H]4CCCNC4)ccc2-3)n(C(C)C)n1` showed an IC50 of under 1 µM.
With `NC(=O)Cn1cc(-c2ccc3c(c2)OCCc2sc(-c4ncnn4CC(F)(F)F)nc2-3)cn1` the IC50 was under 1 µM.
`CC(C)n1ncnc1-c1nc2c(s1)CCOc1cc(C3CCN(CCO)CC3)ccc1-2` was tested, and the IC50 was under 1 µM.
Compound `C[C@@H]1CN(c2ccc3c(n2)-c2sc(-c4ncnn4-c4ccc(F)cc4F)cc2CCO3)C[C@H](C)N1CCF` has an IC50 of under 1 µM.
Compound `FC(F)(F)Cn1ncnc1-c1nc2c(s1)CCOc1cc(-c3cnn(CCNC4COC4)c3)ccc1-2` has an IC50 of under 1 µM.
With `Cc1nn(C)c(=O)n1-c1nc2c(s1)CCOc1cc(-c3cnn(CC(C)(C)O)c3)ccc1-2` the IC50 was under 1 µM.
With `CNC(=O)Cn1cccc(-c2ccc3c(c2)-c2nc(-c4ncnn4C(C)C)sc2CCO3)c1=O` the IC50 was under 1 µM.
In the case of `NC(=O)c1cnc2c(c1)OCCc1cc(-c3ccc[nH]c3=O)sc1-2`, the IC50 is reported as under 1 µM.
`COc1ccccc1C1CCN(C(=O)c2nc3c(s2)CCOc2cc(-c4cn[nH]c4)ccc2-3)CC1` showed an IC50 of under 1 µM.
With `OCCn1cc(-c2ccc3c(c2)OCCc2sc(-c4ncnn4Cc4ccncc4)nc2-3)cn1` the IC50 was under 1 µM.
In the case of `COCCN(C)C(=O)c1nc2c(s1)CCOc1cc(-c3cn[nH]c3)ccc1-2`, the IC50 is reported as under 1 µM.
In the case of `CC1CCN(C(=O)c2nc3c(s2)CCOc2cc(-c4cn[nH]c4)ccc2-3)CC1`, the IC50 is reported as under 1 µM.
`CC(C)n1c(-c2nc3c(s2)CCOc2cc(-c4cnn(CCO)c4)ccc2-3)nnc1C(F)(F)F` was tested, and the IC50 was under 1 µM.
`Cc1cc(-c2ccc3c(n2)-c2sc(-c4ncnn4-c4ccc(F)cc4F)cc2CCO3)cnc1N1CCN(C)CC1` showed an IC50 of under 1 µM.
For `CC(C)n1ncnc1-c1nc2c(s1)CCOc1ccc(-c3ccc(S(C)(=O)=O)cc3)cc1-2`, the IC50 was under 1 µM.
Work on `CC(O)CNc1ccc2c(n1)-c1sc(-c3ncnn3-c3ccc(F)cc3F)cc1CCO2` (stereo unspecified) yielded an IC50 of under 1 µM.
In the case of `CC(C)N(CCO)C(=O)c1nc2c(s1)CCOc1ccc(-c3ccc(N)nc3)cc1-2`, the IC50 is reported as under 1 µM.
Compound `CC(C)n1ncnc1-c1nc2c(s1)CCOc1cc(C3(F)CCN(CC(=O)N(C)C)CC3)ccc1-2` has an IC50 of under 1 µM.
With `CC(C)(O)Cn1cc(-c2ccc3c(c2)OCCc2sc(N4C(=O)NC(=O)C4(C)C)nc2-3)cn1` the IC50 was under 1 µM.
`Cn1cc(-c2ccc3c(n2)-c2sc(-c4ncnn4-c4ccc(F)cc4F)cc2CCO3)cn1` showed an IC50 of under 1 µM.
For `CC(C)(O)Cn1cc(-c2ccc3c(c2)OCCc2sc(NC(C)(C)CO)nc2-3)cn1`, the IC50 was under 1 µM.
`Cc1nc(-c2nc3c(s2)CCOc2cc(-c4cn(CCO)cn4)ccc2-3)n(C(C)C)n1` gave an IC50 of under 1 µM.
With `FC(F)(F)Cn1ncnc1-c1nc2c(s1)CCOc1cc(-c3ccc(NCCN4CCOCC4)nc3)ccc1-2` the IC50 was under 1 µM.
Compound `CC(C)n1ncnc1-c1nc2c(s1)CCOc1cc(C3CN(CC(F)(F)F)C3)ccc1-2` has an IC50 of under 1 µM.
For `N#CCCN(C(=O)c1nc2c(s1)CCOc1cc(-c3cn[nH]c3)ccc1-2)C1CCCC1`, the IC50 was under 1 µM.
In the case of `CC1(C)CCCN(C(=O)c2nc3c(s2)CCOc2cc(-c4cn[nH]c4)ccc2-3)C1`, the IC50 is reported as under 1 µM.
For `CC(C)n1ncnc1-c1nc2c(s1)CCOc1cc(-c3ccc(=O)[nH]c3)ccc1-2`, the IC50 was under 1 µM.
In the case of `CC(=O)N1CC2CC1CN2c1ccc2c(n1)-c1sc(-c3ncnn3-c3ccc(F)cc3F)cc1CCO2` (stereo unspecified), the IC50 is reported as under 1 µM.
`CC(C)(CO)n1cc(-c2ccc3c(c2)OCCc2sc(-c4ncnn4CC(F)(F)F)nc2-3)cn1` gave an IC50 of under 1 µM.
For `CC(C)N(CCO)C(=O)c1nc2c(s1)CCOc1cc(-c3cnn(CCN4CCOCC4)c3)ccc1-2`, the IC50 was under 1 µM.
`CC(C)(O)Cn1cc(-c2ccc3c(c2)OCCc2sc(-c4nccn4C4CNC4)nc2-3)cn1` was tested, and the IC50 was under 1 µM.
`CC(C)(O)Cn1cc(-c2ccc3c(c2)OCCc2sc(-c4nccn4C4COC4)nc2-3)cn1` showed an IC50 of under 1 µM.
Compound `Cc1nc(-c2nc3c(s2)CCOc2cc(CN)ccc2-3)n(C(C)C)n1` has an IC50 of under 1 µM.
`C[C@@H](O)CNC(=O)c1ccc(Cl)c(N(C)C(=O)c2cc3c(s2)-c2ccc(C(=O)NCCS(C)(=O)=O)cc2OCC3)c1` was tested, and the IC50 was under 1 µM.
Work on `Fc1ccc(-n2ncnc2-c2cc3c(s2)-c2nc(N4CCCNCC4)ccc2OCC3)c(F)c1` yielded an IC50 of under 1 µM.
Compound `CC(C)(CN)n1cc(-c2ccc3c(c2)OCCc2sc(-c4ncnn4CC(F)(F)F)nc2-3)cn1` has an IC50 of under 1 µM.
`CC(C)n1ncnc1-c1nc2c(s1)CCOc1cc(C3CN(S(=O)(=O)C(C)C)C3)ccc1-2` was tested, and the IC50 was under 1 µM.
Work on `CN(CCO)C(=O)c1ccc(Cl)c(N(C)C(=O)c2cc3c(s2)-c2ccc(C(=O)NCCS(C)(=O)=O)cc2OCC3)c1` yielded an IC50 of under 1 µM.
Compound `CC(C)(C(=O)O)n1cc(-c2ccc3c(c2)OCCc2sc(-c4ncnn4CC(F)(F)F)nc2-3)cn1` has an IC50 of under 1 µM.
`CNC1CCN(C(=O)c2nc3c(s2)CCOc2cc(-c4cn[nH]c4)ccc2-3)C1` (stereo unspecified) was tested, and the IC50 was under 1 µM.
`COC[C@@H]1CCCN(C(=O)c2nc3c(s2)CCOc2cc(-c4cn[nH]c4)ccc2-3)C1` was tested, and the IC50 was under 1 µM.
Compound `Cc1noc(C)c1-c1ccc2c(c1)OCCc1sc(C(=O)N(CCO)C(C)C)nc1-2` has an IC50 of under 1 µM.
`CC(C)n1cnnc1-c1nc2c(s1)CCOc1cc(CNCC(N)=O)ccc1-2` gave an IC50 of under 1 µM.
`COCCN1CCC(c2ccc3c(c2)OCCc2sc(-c4ncnn4C(C)C)nc2-3)CC1` gave an IC50 of under 1 µM.
In the case of `Cc1ncccc1-c1ccc2c(c1)-c1nc(-c3ncnn3C(C)C)sc1CCO2`, the IC50 is reported as under 1 µM.
`CC(O)C(=O)N1CC(n2ccnc2-c2nc3c(s2)CCOc2cc(-c4cnn(CC(C)(C)O)c4)ccc2-3)C1` (stereo unspecified) gave an IC50 of under 1 µM.
For `Cc1ncccc1-c1ccc2c(n1)-c1sc(-c3nccn3C(C)C)cc1CCO2`, the IC50 was under 1 µM.
In the case of `CCN(CC)C(=O)c1nc2c(s1)CCOc1cc(-c3cn[nH]c3)ccc1-2`, the IC50 is reported as under 1 µM.
`CC(C)n1ncnc1-c1nc2c(s1)CCOc1cc(-c3cn(CCO)cn3)ccc1-2` gave an IC50 of under 1 µM.
`CC(C)N(CCO)C(=O)c1nc2c(s1)CCOc1cc(-c3cnc(N4CCN(C)CC4)nc3)ccc1-2` showed an IC50 of under 1 µM.
In the case of `C[C@@H]1CCCN1C(=O)c1nc2c(s1)CCOc1cc(-c3cn[nH]c3)ccc1-2`, the IC50 is reported as under 1 µM.
Work on `Cc1nc(N)ncc1-c1ccc2c(c1)-c1nc(C(=O)N(CCO)C(C)C)sc1CCO2` yielded an IC50 of under 1 µM.
`CC(C)n1ncnc1-c1nc2c(s1)CCOc1cc(-c3cnn(CCOP(=O)(O)O)c3)ccc1-2` was tested, and the IC50 was under 1 µM.
`CN(C[C@H](O)c1ccccc1)C(=O)c1nc2c(s1)CCOc1cc(-c3cn[nH]c3)ccc1-2` gave an IC50 of under 1 µM.
`CC(C)n1nc(N)nc1-c1nc2c(s1)CCOc1cc(C3CN(CCS(C)(=O)=O)C3)ccc1-2` gave an IC50 of under 1 µM.
With `Cc1ccc(-c2ccc3c(n2)-c2sc(-c4ncnn4-c4ccc(F)cc4F)cc2CCO3)cn1` the IC50 was under 1 µM.
Work on `CC(CO)n1ncnc1-c1nc2c(s1)CCOc1cc(-c3cnn(CC(C)(C)O)c3)ccc1-2` (stereo unspecified) yielded an IC50 of under 1 µM.
Work on `CNC(=O)c1ccc2c(c1)OCCc1cc(C(=O)N(C)c3cc(C(=O)NC[C@@H](C)O)ccc3Cl)sc1-2` yielded an IC50 of under 1 µM.
With `OCCn1cc(-c2ccc3c(c2)OCCc2sc(-c4ncnn4CCN4CCOCC4)nc2-3)cn1` the IC50 was under 1 µM.
